PubChem BioAssay AID1996
≈ marks a conversion by molar mass, not a printed value.

Conditions: buffer; pH 7.4; 200.0 µM

SMILES | solubility kinetic [µg/mL]
O=Cc1ccc(-n2cc(C=O)c3ccccc32)cc1 | 2.4 (≈ 9.63 µM)
CN(c1ccccc1)c1ccc([N+](=O)[O-])c2nonc12 | 2.1 (≈ 7.77 µM)
CCC(Oc1ccccc1OC)C(=O)N1CC(=O)Nc2ccccc21 (stereo not drawn) | 43 (≈ 126 µM)
CSCCCN1CCCC(CO)(Cc2ccccc2F)C1 (stereo not drawn) | > 46.7
Cn1c(=O)[nH]c(=O)c2c1nc1n2CC(COc2ccc3ccccc3c2)O1 (stereo not drawn) | 0.4 (≈ 1.1 µM)
CN(C)C(Cc1ccccc1)C(=O)c1c[nH]c2ccccc12.Cl (stereo not drawn) | > 49.3
O=C(Nc1cc2c3c(c1)CC(=O)N3CCC2)c1ccc(Br)cc1 | 10.3 (≈ 27.7 µM)
CCOC(=O)c1c(C)[nH]c(C)c1C(=O)COC(=O)CCc1ccccc1 | > 53.6
CN(C)/C(=N\S(=O)(=O)c1ccccc1)c1ccc(F)cc1 | > 46
Cc1ccnc(Nc2nc(-c3ccc(O)cc3O)cs2)c1 | 2 (≈ 6.68 µM)
Cc1ccc(C(=O)N2CCN(Cc3ccc4c(c3)OCO4)CC2)c(Cl)c1 | 54.4 (≈ 146 µM)
Cc1ccccc1OCC(=O)OCC(=O)NC1CC1 | > 39.5
CCOCCCNCC(=O)Nc1cc(S(=O)(=O)N2CCOCC2)ccc1N1CCOCC1 | > 70.6
CN(C)CCNC(=O)C(=O)Nc1cc2c3c(c1)CCN3C(=O)CC2 | > 49.6
CCNc1nc(SC(C)C(=O)OC)nc(N(C)C)n1 (stereo not drawn) | 30 (≈ 105 µM)
O=C(NCC(O)c1ccc([N+](=O)[O-])cc1)Nc1ccccc1 (stereo not drawn) | 42 (≈ 139 µM)
COc1ccc(C(=O)OCC(=O)c2ccc[nH]2)cc1 | 20.4 (≈ 78.7 µM)
O=C(Nc1ccc2c(c1)OCO2)c1ccccc1 | > 36.2
COc1ccc(-n2c(=S)[nH]c3ncccc3c2=O)cc1 | 1.5 (≈ 5.26 µM)
COc1ccc(NC(=O)O/N=C/c2ccncc2)cc1 | > 40.7
O=C(COC(=O)/C=C/c1ccc(Cl)cc1)Nc1cccc(S(=O)(=O)NC2=NCCCCC2)c1 | 8.7 (≈ 17.8 µM)
CC1CN(C(=S)Nc2ccc(F)cc2F)CC(C)O1 (stereo not drawn) | > 43
COCCCNC1=C(Cl)C(=O)c2ccccc2C1=O | 35.5 (≈ 127 µM)
COc1ccc(C(NC(=O)CC(C)C)c2c(O)ccc3ccccc23)cc1 (stereo not drawn) | < 0.8

SMILES | solubility kinetic [µg/mL]
COc1ccc(C2CN(C)CC2C(=O)c2ccc(C)cc2)cc1Cl (stereo not drawn) | 40.1 (≈ 117 µM)
COc1cc(C(=O)NC2CCCCCCC2)cc(OC)c1OC | < 0.7
CC1(C)CC(=O)c2cnc(N3CCc4ccccc43)nc2C1 | 0.4 (≈ 1.36 µM)
COc1ccc(S(=O)(=O)Nc2c(C)nn(C)c2C)cc1Br | > 56.1
O=C(CSc1ncccn1)Nc1cccc(S(=O)(=O)N2CCOCC2)c1 | > 59.2
COc1ccc(S(=O)(=O)/C(C#N)=C/Nc2ccccc2F)cc1 | 3.3 (≈ 9.93 µM)
COc1cc(/C(O)=C(\C#N)c2nc3ccccc3[nH]2)cc(OC)c1OC | 7.1 (≈ 20.2 µM)
O=P(C(Cl)Cl)(N1CCOCC1)N1CCOCC1 | > 45.5
CCc1cc(C(=O)c2ccc(OC)cc2)c(NC(=O)CCC(=O)O)s1 | > 54.2
CC(OC(=O)c1ccc(Br)o1)C(=O)NCC1CCCCC1 (stereo not drawn) | 10.7 (≈ 29.9 µM)
CCCC(C(=O)OCCN(CC)CC)(c1ccccc1)c1ccccc1.Cl | 47.4
CCN(CC)c1ccc(NC(=O)CCCCC(=O)Nc2ccc(N(CC)CC)cc2)cc1 | 0.4 (≈ 0.912 µM)
CCOC(=O)c1cc2sccc2n1CC(=O)C(C)(C)C | < 0.6
CCC(=O)c1cn(CC(=O)Nc2cccc(C)c2C)c2ccccc12 | < 0.4
CCCCN(CC)C(=O)c1ccc(Cl)cc1 | 29.5 (≈ 123 µM)
Cn1c(Nc2cccc(Cl)c2)nc2ccccc21 | 5.5 (≈ 21.3 µM)
O=Cc1c(-c2ccccc2)nc2ccccn12 | > 33.3
CCCCN1C(=O)c2ccc(C(=O)NCc3ccco3)cc2C1=O | 17.9 (≈ 54.8 µM)
N#CCc1ccc(OC(=O)c2cccnc2)cc1 | > 35.7
Cc1cccc(C)c1CC(=O)N1CCOCC1 | 34.6 (≈ 148 µM)
COc1ccc(C(=O)N(Cc2ccccc2)c2cccc(C)c2)cc1 | 15.8 (≈ 47.7 µM)
CCCCNC(=O)c1ccccc1SCc1c(C)noc1C | > 47.8
CCOC(=O)/C(C#N)=C/Nc1ccccc1OC(F)(F)F | 1.2 (≈ 4 µM)
Cc1cccc(N(C)S(=O)(=O)c2csc(C(N)=O)c2)c1 | > 46.6

SMILES | solubility kinetic [µg/mL]
Cn1c(NNC(=O)c2ccccc2F)cc(=O)n(C)c1=O | > 43.8
O=C(COc1ccccc1)Nc1ccncc1Cl | 32.3 (≈ 123 µM)
Cc1ccc2c(c1)C1C3CCC(C3)C1S(=O)N2 (stereo not drawn) | > 37.1
O=C(NCc1ccc(F)cc1)C(c1ccccc1)c1ccccc1 | < 0.7
O=C(c1cccc2c1-c1ccccc1C2)N1CCCCC1 | > 41.6
O=C(CN1CCCCC1)Nc1nc(-c2ccc(F)c(F)c2)cs1 | 2 (≈ 5.93 µM)
CC1=C([N+](=O)[O-])C(c2ccccc2)NC(=O)N1 (stereo not drawn) | > 35
O=C(NNC1CC(=O)N(c2ccc(Cl)cc2)C1=O)c1ccco1 (stereo not drawn) | > 50.1
COc1ccc(C)cc1S(=O)(=O)n1cnc(C)c1 | > 39.9
Cc1nn(C)cc1S(=O)(=O)N1CCCCC1C (stereo not drawn) | > 38.6
O=C1N=c2ccccc2=C1c1c(O)[nH]c2c(C(F)(F)F)cccc12 | < 0.4
CCOc1ccc(NC(=O)CCC(=O)c2ccc(F)cc2)cc1 | 2.5 (≈ 7.93 µM)
CCOC(=O)C1CCN(C(=O)COC(=O)/C=C/c2ccc([N+](=O)[O-])cc2)CC1 | 18.7 (≈ 47.9 µM)
CCn1c(SCC(=O)OC(C)C)nnc1-c1ccccc1OC | > 50.3
O=C1NC(=Nc2ccccc2)S/C1=C\c1cccs1 | 1 (≈ 3.49 µM)
Cc1ccc(NC(=O)c2cnccn2)cc1 | > 32
CCOC(=O)CN(C#N)c1nc(N(C)C)nc(N(C)C)n1 | 17.8 (≈ 60.7 µM)
COc1cc(-c2c(C#N)c(N)nc3[nH]c(=S)[nH]c(=O)c23)ccc1O | 11.7 (≈ 34.3 µM)
CCC(=NC(C)c1ccccc1)c1c(O)[nH]c(=O)[nH]c1=O (stereo not drawn) | > 43.1
COc1ccc([N+](=O)[O-])cc1NC(=O)c1csc(C)c1 | < 0.3
CNC(=O)Oc1ccc2c(c1)[C@]1(C)CCN(C)C1N2C.O=C(O)c1ccccc1O (stereo partly drawn) | > 62
CCC(=O)NC(=S)Nc1ccc(NC(=O)c2cccnc2)cc1 | 13.1 (≈ 39.9 µM)
O=C(/C=C/c1c(Cl)nc2ccccn12)Nc1ccc(F)cc1 | 4.6 (≈ 14.6 µM)
N#Cc1ccccc1S(=O)(=O)N1CCN(C(=O)C2CCCCC2)CC1 | > 54.2

SMILES | solubility kinetic [µg/mL]
COC(=O)c1cccc(Nc2nc(-c3ccncc3)nc3ccccc23)c1 | < 0.2
COc1ccc2nc(C)cc(Nc3ccc(C(=O)O)cc3)c2c1 | 40.5 (≈ 131 µM)
Cc1ccc(S(=O)(=O)Nc2nc(C)c(C(=O)NN)s2)cc1 | > 49
CN(CC(=O)NCc1ccc2c(c1)OCO2)S(=O)(=O)c1ccc(Cl)cc1 | 8.6 (≈ 21.7 µM)
COc1ccc(CCNc2nc(-c3ccc(O)cc3)cs2)cc1OC | 29.2 (≈ 81.9 µM)
CCCCOc1nc(N2CCOCC2)nc(C)c1[N+](=O)[O-] | 1.5 (≈ 5.06 µM)
O=C(CSc1cccc[n+]1[O-])c1ccc(Cl)s1 | 38.3 (≈ 134 µM)
Cc1cc(Br)ccc1NC(=O)CNC(=O)c1cnn(C)c1 | > 52.7
O=C(c1cccc(Oc2ccc([N+](=O)[O-])cc2)c1)N1CCOCC1 | > 49.2
Cc1ccc2c(CN(C)Cc3cccc(F)c3)cc(=O)oc2c1C | 2.9 (≈ 8.91 µM)
CC(=O)Nc1ccc(NC(=S)NC(=O)/C=C/c2ccco2)cc1 | 32.3 (≈ 98.1 µM)
CCOc1ccc(NC(=O)COc2ccc3c(c2)OCO3)cc1 | 5.7 (≈ 18.1 µM)
Cc1cc[n+](CC(=O)Nc2cccc(C)c2)cc1.[Cl-] | > 41.5
N#C/C(=C\c1ccc2c(c1)OCO2)C(=O)NCc1ccco1 | 0.6 (≈ 2.03 µM)
COc1ccccc1N1CN(Cc2ccccc2)CNC1=S | > 47
CCCCN(C)C1CCN(C(=S)Nc2cccc(OC)c2)CC1 | > 50.3
O=[N+]([O-])c1ccc(Nc2ccccc2O)c2nonc12 | > 40.8
O=C1Nc2ccccc2/C1=C\C(=O)c1ccccc1 | 5.1 (≈ 20.5 µM)
O=C(N/C(=C\c1ccco1)C(=O)N1CCC(O)CC1)c1ccccc1 | 41.1 (≈ 121 µM)
O=C1Nc2ccc(F)cc2C12OCCO2 | 31.3 (≈ 150 µM)
CN(CC(=O)Nc1ccc(F)cc1Cl)Cc1cccs1 | 14.6 (≈ 46.7 µM)
CC1CC(C#N)N(N(C)C)C1=C(C#N)C#N (stereo not drawn) | > 32.3
COc1cc(/C=C/C(=O)OCC(=O)NCCC2=CCCCC2)cc(OC)c1OC | 33.3 (≈ 82.5 µM)
Cc1ccc2c(c1)N(CC(=O)N1CCCC1)C(=O)CO2 | > 41.1

SMILES | solubility kinetic [µg/mL]
O=C(O)c1cccc(Nc2ccncc2[N+](=O)[O-])c1 | > 38.9
CCOc1ccc(Br)cc1S(=O)(=O)Nc1cccnc1 | 1.4 (≈ 3.92 µM)
COC(=O)c1cc(NC(=O)COC(=O)C2COc3ccccc3O2)cc(C(=O)OC)c1 (stereo not drawn) | 54.7 (≈ 127 µM)
Cc1ccc(NC(=O)COCC(=O)Nc2ccc(F)cc2)cc1 | 37.3 (≈ 118 µM)
O=C(NCCN1CCN(C(=O)c2cccc(OC(F)F)c2)CC1)c1cccc(OC(F)F)c1 | > 70.4
CCC(C)c1ccccc1NS(=O)(=O)c1cnn(CC)c1 (stereo not drawn) | > 46.1
Cc1cccc(NC(=S)N2CCC(O)CC2)c1C | 36.5 (≈ 138 µM)
O=C(O)c1cc(Cl)nc2ccccc12 | > 31.1
COc1ccc(C(=O)Nc2ccc(CN3CCS(=O)(=O)CC3)cc2)cc1 | 1.3 (≈ 3.47 µM)
O=C(CCN1C(=O)COc2ccccc21)N1CCN(c2ccccc2)CC1 | 47 (≈ 129 µM)
Cc1nc(C)c(-c2ccnc(/N=C/NO)n2)s1 | 34 (≈ 136 µM)
Nc1nc(Nc2ccccc2)nc(C(F)(F)F)n1 | > 38.3
COc1cccc(NC(=O)CN(C)C(=O)c2cccc(S(=O)(=O)N3CC4(C)CC3CC(C)(C)C4)c2)c1 (stereo not drawn) | 2 (≈ 3.89 µM)
CCOC(=O)Cc1csc(-n2sc3ccccc3c2=O)n1 | 29.8 (≈ 93 µM)
CC12CC3(C)CC(C)(C1)CC(C(=O)NC(=S)N1CCCC1)(C2)C3 | < 0.4
Cc1cc(-c2ccccc2)nc(SC(C(=O)O)c2ccccc2)n1 (stereo not drawn) | 48.1 (≈ 143 µM)
COC(=O)CNC(=O)c1cccc(Cl)c1 | > 34.1
CC(NC(=O)Nc1ccc(Cl)cc1)c1ccc2c(c1)OCO2 (stereo not drawn) | 2.8 (≈ 8.78 µM)
N#CC1=C(N)Oc2cc(N)ccc2C1c1cccc(Br)c1 (stereo not drawn) | 3.5 (≈ 10.2 µM)
CN(C)CCNC(=O)Nc1ccc(F)cc1F | > 36.5
COC(=O)c1sccc1NC(=O)Nc1cc(OC)ccc1OC | 10.3 (≈ 30.6 µM)
CC1CCN(Cc2cc(=O)oc3ccc4ccccc4c23)CC1 | 2.3 (≈ 7.48 µM)
